Where two headings read alike, the source gives them in different places.
Experiments:
human DGKζ = biological target: T1, human DGKζ (Homo sapiens, UniProt Q13574); experiment: DGKζ LIPGLO assay (extruded liposome substrate), in vitro DGK inhibition; type: biochemical; conditions: liposome (LIPGLO) assay; read-out: DGKz LIPGLO IC50
T1 construct: TVMV protease cleavage site (C); Hexa-His (C); made in house; host or cells: Sf9 insect cells (baculovirus, Bac-to-Bac)

naïve human CD8 T cells = experiment: Human CD8 T cells IFN-γ assay; type: cell-based; conditions: normalized to 3 μM reference compound with anti-CD3 plus anti-CD28 as 100% activation, read-out: HuCD8 INFG Normalized EC50;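 note: Naïve human CD8 T cells stimulated with plate-bound anti-CD3 and soluble anti-CD28, IFN-γ in supernatant quantified by AlphaLISA and converted to pg/mL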
human DGKα = biological target: T2, human DGKα (Homo sapiens, UniProt P23743); experiment: DGKα LIPGLO assay (extruded liposome substrate), in vitro DGK inhibition; type: biochemical; conditions: liposome (LIPGLO) assay; read-out: DGKa LIPGLO IC50
T2 construct: TVMV protease cleavage site (C); Hexa-His (C); made in house; host or cells: Sf9 insect cells (baculovirus, Bac-to-Bac)
T2 sequence (P23743 with tags, fused parts or gaps): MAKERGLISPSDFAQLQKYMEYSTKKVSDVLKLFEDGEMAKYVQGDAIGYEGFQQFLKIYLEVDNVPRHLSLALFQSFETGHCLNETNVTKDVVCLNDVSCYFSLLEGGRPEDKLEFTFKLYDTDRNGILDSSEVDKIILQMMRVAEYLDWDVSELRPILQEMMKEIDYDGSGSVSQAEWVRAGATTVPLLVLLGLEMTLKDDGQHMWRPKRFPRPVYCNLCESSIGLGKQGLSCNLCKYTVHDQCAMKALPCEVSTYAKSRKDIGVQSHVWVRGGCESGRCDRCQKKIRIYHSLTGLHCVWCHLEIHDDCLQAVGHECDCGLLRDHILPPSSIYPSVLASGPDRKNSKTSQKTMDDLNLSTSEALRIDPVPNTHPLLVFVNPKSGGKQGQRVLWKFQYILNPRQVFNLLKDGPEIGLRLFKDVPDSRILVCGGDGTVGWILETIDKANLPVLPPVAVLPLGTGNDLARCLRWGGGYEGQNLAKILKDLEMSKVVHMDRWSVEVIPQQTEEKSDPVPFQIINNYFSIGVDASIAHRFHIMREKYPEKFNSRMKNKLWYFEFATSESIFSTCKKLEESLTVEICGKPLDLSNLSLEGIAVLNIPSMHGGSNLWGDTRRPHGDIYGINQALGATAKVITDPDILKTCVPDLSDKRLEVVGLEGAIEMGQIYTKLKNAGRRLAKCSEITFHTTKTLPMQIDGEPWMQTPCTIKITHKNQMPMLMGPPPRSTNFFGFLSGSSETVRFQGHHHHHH

T1 sequence (Q13574 with tags, fused parts or gaps isoform Q13574-4): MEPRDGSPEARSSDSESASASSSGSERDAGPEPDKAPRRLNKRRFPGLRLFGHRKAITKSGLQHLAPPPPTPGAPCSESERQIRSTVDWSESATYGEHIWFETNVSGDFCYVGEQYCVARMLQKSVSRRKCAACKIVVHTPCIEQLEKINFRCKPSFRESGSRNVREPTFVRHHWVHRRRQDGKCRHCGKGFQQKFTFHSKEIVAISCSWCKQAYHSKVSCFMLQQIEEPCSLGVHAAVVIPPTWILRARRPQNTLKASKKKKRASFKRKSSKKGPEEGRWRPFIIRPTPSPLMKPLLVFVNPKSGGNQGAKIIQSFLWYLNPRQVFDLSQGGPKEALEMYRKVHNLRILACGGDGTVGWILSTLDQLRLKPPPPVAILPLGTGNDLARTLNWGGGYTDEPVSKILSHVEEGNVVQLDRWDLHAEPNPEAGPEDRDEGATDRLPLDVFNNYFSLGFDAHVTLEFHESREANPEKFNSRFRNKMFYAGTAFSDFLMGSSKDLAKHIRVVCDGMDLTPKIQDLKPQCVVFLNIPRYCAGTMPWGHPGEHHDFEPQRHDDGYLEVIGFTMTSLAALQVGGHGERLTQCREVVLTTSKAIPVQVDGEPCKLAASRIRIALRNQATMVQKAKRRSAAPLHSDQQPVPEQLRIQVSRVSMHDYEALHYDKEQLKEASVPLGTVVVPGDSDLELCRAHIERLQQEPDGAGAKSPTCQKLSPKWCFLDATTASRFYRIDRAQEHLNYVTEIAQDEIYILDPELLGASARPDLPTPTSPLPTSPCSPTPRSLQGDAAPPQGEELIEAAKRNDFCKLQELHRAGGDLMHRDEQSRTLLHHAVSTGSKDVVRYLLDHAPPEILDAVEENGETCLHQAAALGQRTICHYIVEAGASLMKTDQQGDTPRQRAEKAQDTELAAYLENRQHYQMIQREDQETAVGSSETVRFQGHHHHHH

| Compound | IC50 (human DGKζ) [µM] | EC50 (naïve human CD8 T cells; Homo sapiens, T-cell, 20 h) [µM] | IC50 (human DGKα) [µM] | EC50 (naïve human CD8 T cells) [µM] |
| --- | --- | --- | --- | --- |
| Cn1c(=O)cc(N2CCN(C(c3ccc(F)cc3)c3ccc(F)cc3)C(C(=O)NC3CC3)C2)c2nc(C#N)ccc21 (racemic) [Example 46, 1-(bis(4-fluorophenyl)methyl)-4-(6-cyano-1-methyl-2-oxo-1,2-dihydro-1,5-naphthyridin-4-yl)-N-cyclopropylpiperazine-2-carboxamide] | 3.5 | 4.7 | 240 |  |
| COc1ccc2c(n1)c(N1C[C@@H](C)N(C(c3ccccc3)c3ccc(F)cc3)C[C@@H]1C)cc(=O)n2C (single isomer, unassigned) [Example 238] | 79 | 5 | 17 |  |
| Cn1c(=O)cc(N2CCN(C(c3ccc(F)cc3)c3ccc(F)cc3)CC2C#N)c2nc(C#N)ccc21 (single isomer, unassigned) [Example 144, 8-(4-(bis(4-fluorophenyl)methyl)-2-cyanopiperazin-1-yl)-5-methyl-6-oxo-5,6-dihydro-1,5-naphthyridine-2-carbonitrile] | 2.4 | 1.2 | 1.4 |  |
| COC(=O)C1CN(c2cc(=O)n(C)c3ccc(C#N)nc23)CCN1C(c1ccc(F)cc1)c1ccc(F)cc1OC (single isomer, unassigned) [Example 67, Methyl 4-(6-cyano-1-methyl-2-oxo-1,2-dihydro-1,5-naphthyridin-4-yl)-1-((4-fluoro-2-methoxyphenyl)(4-fluorophenyl)methyl)piperazine-2-carboxylate] | 0.92 |  | 48 | 0.03 |
| COc1ccc2c(n1)c(N1C[C@@H](C)N(C(c3ccc(F)cc3)c3ccc(Cl)cc3)C[C@@H]1C)cc(=O)n2C (stereo partly drawn) [Example 240, 4-[(2S,5R)-4-[(4-chlorophenyl)(4-fluorophenyl)methyl]-2,5-dimethylpiperazin-1-yl]-6-methoxy-1-methyl-1,2-dihydro-1,5-naphthyridin-2-one] | 20 | 12 | 15 |  |
| COC(=O)C1CN(c2cc(=O)n(C)c3ccc(C#N)nc23)CCN1C(c1ccc(F)cc1)c1ccc(F)cc1OC (single isomer, unassigned) [Example 68, Methyl 4-(6-cyano-1-methyl-2-oxo-1,2-dihydro-1,5-naphthyridin-4-yl)-1-((4-fluoro-2-methoxyphenyl)(4-fluorophenyl)methyl)piperazine-2-carboxylate] | 0.25 |  | 18 | 0.011 |
| Cn1c(=O)cc(N2CCN(C(c3ccc(F)cc3)c3ccc(F)cc3)CC2C(=O)NC2CC2)c2nc(C#N)ccc21 (single isomer, unassigned) [Example 140, 4-(bis(4-fluorophenyl)methyl)-1-(6-cyano-1-methyl-2-oxo-1,2-dihydro-1,5-naphthyridin-4-yl)-N-cyclopropylpiperazine-2-carboxamide] | 25 |  | 150 | 6.6 |
| Cn1c(=O)cc(N2CCN(C(c3ccc(F)cc3)c3ccc(F)cc3)CC2CO)c2nc(C#N)ccc21 (racemic) [Example 146, 8-(4-(bis(4-fluorophenyl)methyl)-2-(hydroxymethyl)piperazin-1-yl)-5-methyl-6-oxo-5,6-dihydro-1,5-naphthyridine-2-carbonitrile] | 14 | 0.66 | 84 |  |
| Cn1c(=O)cc(N2CCN(C(c3ccc(F)cc3)c3ccc(F)cc3)C(C(N)=O)C2)c2nc(C#N)ccc21 (single isomer, unassigned) [Example 41, 1-(bis(4-fluorophenyl)methyl)-4-(6-cyano-1-methyl-2-oxo-1,2-dihydro-1,5-naphthyridin-4-yl)piperazine-2-carboxamide] | 46 |  | 14 | 1.5 |
| Cn1c(=O)c(C#N)c(N2CCN(C(c3ccc(F)cc3)c3ccc(F)cc3)C(C(=O)NC3CC3)C2)c2nc(C#N)ccc21 (single isomer, unassigned) [Example 61, 1-(bis(4-fluorophenyl)methyl)-N-cyclopropyl-4-(3,6-dicyano-1-methyl-2-oxo-1,2-dihydro-1,5-naphthyridin-4-yl)piperazine-2-carboxamide] | 170 |  | 240 | 10 |
| Cn1c(=O)c(C#N)c(N2CCN(C(c3ccc(F)cc3)c3ccc(F)cc3)C(C(=O)O)C2)c2nc(C#N)ccc21 (single isomer, unassigned) [Example 53, 1-(bis(4-fluorophenyl)methyl)-4-(3,6-dicyano-1-methyl-2-oxo-1,2-dihydro-1,5-naphthyridin-4-yl)piperazine-2-carboxylic acid] | 94 | 10 | 140 |  |
| Cn1c(=O)cc(N2CCN(C(c3ccc(F)cc3)c3ccc(F)cc3)CC2CF)c2nc(C#N)ccc21 (single isomer, unassigned) [Example 151, 8-(4-(bis(4-fluorophenyl)methyl)-2-(fluoromethyl)piperazin-1-yl)-5-methyl-6-oxo-5,6-dihydro-1,5-naphthyridine-2-carbonitrile] | 8.8 |  | 3.6 | 0.15 |
| Cn1c(=O)c(C#N)c(N2CCN(C(c3ccc(F)cc3)c3ccc(F)cc3)C(CO)C2)c2nc(Br)ccc21 (stereo not drawn) [Example 17, 4-(4-(bis(4-fluorophenyl)methyl)-3-(hydroxymethyl)piperazin-1-yl)-6-bromo-1-methyl-2-oxo-1,2-dihydro-1,5-naphthyridine-3-carbonitrile] | 19 | 6.5 | 2.3 |  |
| Cn1c(=O)c(C#N)c(N2CCN(C(c3ccc(F)cc3)c3ccc(F)cc3)CC2CO)c2nc(Br)ccc21 (stereo not drawn) [Example 118, 4-(4-(bis(4-fluorophenyl)methyl)-2-(hydroxymethyl)piperazin-1-yl)-6-bromo-1-methyl-2-oxo-1,2-dihydro-1,5-naphthyridine-3-carbonitrile] | 63 | 0.71 | 10 |  |
| Cn1c(=O)cc(N2CCN(C(c3ccc(F)cc3)c3ccc(F)cc3)CC2CF)c2nc(C#N)ccc21 (single isomer, unassigned) [Example 150, 8-(4-(bis(4-fluorophenyl)methyl)-2-(fluoromethyl)piperazin-1-yl)-5-methyl-6-oxo-5,6-dihydro-1,5-naphthyridine-2-carbonitrile] | 29 |  | 240 | 10 |
| C[C@@H]1CN(c2cc(=O)n(C)c3ccc(C#N)nc23)[C@@H](C)CN1C(c1ccccc1)c1ccccc1 [Example 237, 8-[(2S,5R)-4-(diphenylmethyl)-2,5-dimethylpiperazin-1-yl]-5-methyl-6-oxo-5,6-dihydro-1,5-naphthyridine-2-carbonitrile] | 1.4 | 0.039 | 0.93 |  |
| Cn1c(=O)cc(N2CCN(C(c3ccc(F)cc3)c3ccc(F)cc3)CC2CO)c2nc(C#N)ccc21 (single isomer, unassigned) [Example 148, 8-(4-(bis(4-fluorophenyl)methyl)-2-(hydroxymethyl)piperazin-1-yl)-5-methyl-6-oxo-5,6-dihydro-1,5-naphthyridine-2-carbonitrile] | 75 |  | 240 | 0.42 |
| COC(=O)C1CN(c2c(F)c(=O)n(C)c3ccc(C#N)nc23)CCN1C(c1ccc(Cl)cc1)c1ccc(Cl)cc1 (single isomer, unassigned) [Example 95, methyl 1-(bis(4-chlorophenyl)methyl)-4-(6-cyano-3-fluoro-1-methyl-2-oxo-1,2-dihydro-1,5-naphthyridin-4-yl)piperazine-2-carboxylate] | 0.76 |  | 2.6 | 0.021 |
| Cn1c(=O)cc(N2CCN(C(c3ccc(F)cc3)c3ccc(F)cc3)CC2CO)c2nc(C#N)ccc21 (single isomer, unassigned) [Example 147, 8-(4-(bis(4-fluorophenyl)methyl)-2-(hydroxymethyl)piperazin-1-yl)-5-methyl-6-oxo-5,6-dihydro-1,5-naphthyridine-2-carbonitrile] | 15 |  | 48 | 2 |
| Cn1c(=O)c(C#N)c(N2CCN(C(c3ccc(F)cc3)c3ccc(F)cc3)C(C(N)=O)C2)c2nc(C#N)ccc21 (single isomer, unassigned) [Example 57, 1-(bis (4-fluorophenyl)methyl)-4-(3,6-dicyano-1-methyl-2-oxo-1,2-dihydro-1,5-naphthyridin-4-yl)piperazine-2-carboxamide] | 140 | 6 | 52 |  |
| Cn1c(=O)cc(N2CCN(C(c3ccc(F)cc3)c3ccc(F)cc3)CC2C(=O)O)c2nc(C#N)ccc21 (stereo not drawn) [Example 138, 4-(bis(4-fluorophenyl)methyl)-1-(6-cyano-1-methyl-2-oxo-1,2-dihydro-1,5-naphthyridin-4-yl)piperazine-2-carboxylic acid] | 95 | 10 | 82 |  |
| Cn1c(=O)cc(N2CCN(C(c3ccc(F)cc3)c3ccc(F)cc3)C(C)(C)C2)c2nc(C#N)ccc21 [Example 171, 8-(4-(bis(4-fluorophenyl)methyl)-3,3-dimethylpiperazin-1-yl)-5-methyl-6-oxo-5,6-dihydro-1,5-naphthyridine-2-carbonitrile] | 94 | 10 | 0.24 |  |
| C[C@@H]1CN(C(c2ccc(F)cc2)c2ccc(F)cc2)[C@@H](C)CN1c1c(C#N)c(=O)n(C)c2ccc(C#N)nc12 [Example 6, 8-((2R,5S)-4-(bis(4-fluorophenyl)methyl)-2,5-dimethylpiperazin-1-yl)-5-methyl-6-oxo-5,6-dihydro-1,5-naphthyridine-2,7-dicarbonitrile] | 16 | 0.56 | 25 |  |
